Laboratory results as given in article PMC4068353, “Characterization of 14-3-3-ζ Interactions with Integrin Tails” (Journal of Molecular Biology, 2013).
“Also recorded” adds a separate entry of the source.

How the values were obtained:
[1] = tested on: paxillin (residues 1–323); assay: ITC test of pairwise interaction with paxillin N-terminal region; assay type: binding
Experimental: (§1) The interactions of α4 and 14-3-3-ζ with paxillin were also investigated. The association of paxillin with α4 has been detected using pull-down experiments with glutathione S-transferase fusion proteins[22,32,33] and, very recently, by NMR in a study that also reports the solution structure of the α4 integrin tail.[34] […] The possibility that a paxillin/14-3-3-ζ association depends on phosphorylation was also assessed. The ELM (eukaryotic linear motif) server[35] indicated three putative 14-3-3 binding motifs in the paxillin N-terminus; of these, only one has been reported to be phosphorylated in vivo[36] (Supplementary Fig. 1a). […] The recent report of paxillin binding to α4 detected by NMR used shorter paxillin fragments than us, covering the LD2–LD4 region.[34] It is possible that, in the whole N-terminal paxillin, the α4 interaction sites are masked, which would explain the absence of an interaction in our studies.
Phosphorylated α4 synthetic peptides were purchased from GL Biochem Ltd. (Shanghai). All recombinant proteins and synthetic peptides were prepared in 20 mM sodium phosphate and 50 mM NaCl (pH 6.5), and concentrations were determined by UV absorbance at 280 nm. […] Raw data were processed and fitted with MicroCal Origin software using a one-site model where the error function is calculated as the sum of the squared deviations between the data and the model curve.

14-3-3-ζ [2] = molecular target: T1, 14-3-3-ζ (Homo sapiens, UniProt P63104); assay: ITC of integrin tail fragments with 14-3-3-ζ; assay type: binding; settings: 298 K, pH 6.5, fragment in cell, 14-3-3-ζ in syringe
T1 construct: His10 (cleaved yes); made in house
T1 sequence (P63104 1-245): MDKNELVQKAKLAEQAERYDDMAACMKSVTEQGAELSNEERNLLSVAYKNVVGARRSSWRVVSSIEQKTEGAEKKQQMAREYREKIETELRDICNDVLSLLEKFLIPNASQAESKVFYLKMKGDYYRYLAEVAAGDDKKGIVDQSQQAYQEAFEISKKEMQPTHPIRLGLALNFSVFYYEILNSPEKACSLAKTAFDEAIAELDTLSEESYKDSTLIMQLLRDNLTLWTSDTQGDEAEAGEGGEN
Experimental: Phosphorylated α4 synthetic peptides were purchased from GL Biochem Ltd. (Shanghai). All recombinant proteins and synthetic peptides were prepared in 20 mM sodium phosphate and 50 mM NaCl (pH 6.5), and concentrations were determined by UV absorbance at 280 nm. ITC experiments using a VP-ITC200 instrument (MicroCal) were performed at 298 K as follows: the cell (volume, ~ 200 μl) contained the different integrin tail fragments, and the syringe (volume, ~ 40 μl) contained 14-3-3-ζ. A first injection of 2 μl was followed by 15 injections of 2.5 μl, with a stirring speed of 1500 rpm and a delay between injections of 180 s. A blank titration was performed by injecting 14-3-3-ζ into buffer to take the heat of dilution into account. Experiments were repeated twice for each sample. Raw data were processed and fitted with MicroCal Origin software using a one-site model where the error function is calculated as the sum of the squared deviations between the data and the model curve.

14-3-3-ζ [3] = molecular target: T1, 14-3-3-ζ; assay: Fluorescence polarization titration of fluorescein-labeled integrin tails with 14-3-3-ζ; assay type: binding; settings: 1 μM, ex 485 nm, em 520 nm; for binding to 14-3-3-ζ by fluorescence polarization, in words: fluorescein-labeled tail
Experimental: Fig. 6 Fluorescence polarization and ITC of interactions between integrin tails and 14-3-3-ζ. (a) Fluorescence polarization titrations of fluorescein-labeled β1A, β3 and α4 with 14-3-3-ζ. […] (b–d) ITC sensorgram of an in-cell 200 μM β1A, β2 (same as in Fig. 5a) or β3 samples injected with 2 mM 14-3-3-ζ.
For fluorescence polarization experiments, integrin tails were labeled with fluorescein-5-maleimide (Invitrogen) linked to an engineered C-terminal Cys residue. Measurements were performed using 96-well microplates (Corning) in a PHERAstar FS microplate reader (BMG Labtech). Fluorescein-labeled integrin tails at 1 μM concentration were excited at 485 nm, and polarization was recorded at 520 nm.

[4] = tested on: paxillin (residues 1–323); assay: NMR test of α4 integrin tail interaction with paxillin N-terminal region; assay type: binding; settings: paxillin residues 1–323 with all LD motifs
Experimental: as §1
Samples were prepared in NMR buffer (pH 6.5) with 5% D2O, and experiments were performed at 25 °C. Titration experiments were collected on a 500-MHz spectrometer using a water flip-back-embedded gradient enhanced ^15N–^1H HSQC pulse sequence.[46] […] Data were processed using NMRPipe[47] and analyzed with the programs CARA/XEASY[48] or CCPN Analysis.[49]

14-3-3-ζ [5] = molecular target: T1, 14-3-3-ζ; assay: 15N-1H HSQC NMR titration of 15N-labeled integrin tails with unlabeled 14-3-3-ζ; assay type: binding; settings: 15N-labeled tail 0.1 mM, equimolar unlabeled 14-3-3-ζ; NMR buffer pH 6.5, 25 °C
Experimental: (§2) Samples were prepared in NMR buffer (pH 6.5) with 5% D2O, and experiments were performed at 25 °C. Titration experiments were collected on a 500-MHz spectrometer using a water flip-back-embedded gradient enhanced ^15N–^1H HSQC pulse sequence.[46] For the assignment of the α4 and β2 backbone resonances, ^15N–^13C integrin tails of 0.6 mM concentration were used to measure CBCA(CO)NH and CBCANH experiments on a Bruker 500-MHz instrument equipped with a cryogenic probe head. Data were processed using NMRPipe[47] and analyzed with the programs CARA/XEASY[48] or CCPN Analysis.[49]

14-3-3-ζ S58E = assay: NMR binding of 14-3-3-ζ variant S58E to labeled integrin tail; settings: labeled β1A
Source text: (§3) To gain further insight into the β1A/14-3-3-ζ association, we investigated the effects of 14-3-3-ζ substitutions on binding to β1A integrin tail. It has been reported that the substitution S58A in 14-3-3-β abolishes the β1A interaction.[38] S58 regulates the dimeric state of 14-3-3,[39] but it is not involved directly in binding to phospho-peptides. The binding of 14-3-3-ζ variants S58A and S58E to labeled β1A was studied using NMR. […] A similar result was obtained with the β2 integrin tail (data not shown).
as §2

14-3-3-ζ S58A = assay: NMR binding of 14-3-3-ζ variant S58A to labeled integrin tail; settings: labeled β1A
Source text: as §3, §2

Substance: GPLGSKAGFFKRQYKSILQEENRRDSWSYINSKSNDD [α4 wt, recombinant α4 integrin cytoplasmic tail, residues 1001–1032]
- interaction with paxillin by ITC, in words [1]: no pairwise interaction was detected by ITC
- binding to 14-3-3-ζ by ITC, in words (14-3-3-ζ [2]): a Kd could not be determined by ITC; also recorded: the interaction is weak, in the millimolar range
- binding to 14-3-3-ζ by fluorescence polarization, in words (14-3-3-ζ [3]): No binding was detected
- interaction with paxillin by NMR, in words [4]: no specific interaction
- change of integrin tail resonances on addition of 14-3-3-ζ, in words (14-3-3-ζ [5]): significant decrease in α4 amide resonance intensities

Substance: GS KLLMIIHDRREFAKFEKEKMNAKWDTGENPIYKSAVTTVVNPKYEGK (GSKLLMIIHDRREFAKFEKEKMNAKWDTGENPIYKSAVTTVVNPKYEGK; left off: His10, N-terminal, cleaved) [β1A wt, recombinant β1A integrin tail, residues 752–798]
- change of integrin tail resonance intensity with 14-3-3-ζ S58E, in words (14-3-3-ζ S58E): the intensities change even less
- binding to 14-3-3-ζ by fluorescence polarization, in words (14-3-3-ζ [3]): clearly binds
- Kd (14-3-3-ζ [3]; fluorescence polarization, tail labeled with fluorescein-5-maleimide at engineered C-terminal Cys, single-site model): 95 ± 16 µM
- change of integrin tail resonance intensity with 14-3-3-ζ S58A compared to wt, in words (14-3-3-ζ S58A): significant reduction in β1A resonance intensity change
- change of integrin tail resonances on addition of 14-3-3-ζ, in words (14-3-3-ζ [5]): intensity reduction for several resonances
